How the values were obtained:
Type in all cases: cell-based
[1] = system: Mycobacterium sp. with deposit number of CGMCC No.21273; experiment: BIOLOG chemically sensitive experiments; settings: strain CGMCC No.21273 (JD)
[2] = system: Mycobacterium sp. with the deposit number CGMCC No.21272; experiment: BIOLOG chemically sensitive experiments; settings: strain CGMCC No.21272 (YT)
[3] = system: Mycobacterium sp. with the deposit number CGMCC No.21272; experiment: BIOLOG GEN III growth experiments; settings: growth on the substance; strain CGMCC No.21272 (YT)
[4] = system: Mycobacterium sp. with deposit number of CGMCC No.21273; experiment: BIOLOG GEN III growth experiments; settings: growth on the substance; strain CGMCC No.21273 (JD)
[5] = system: Mycobacterium sp. with deposit number of CGMCC No.21272; experiment: antibiotic susceptibility experiment; settings: strain CGMCC No.21272 (YT)
[6] = system: Mycobacterium sp. with deposit number of CGMCC No.21273; experiment: antibiotic susceptibility experiment; settings: strain CGMCC No.21273 (JD)

CC(O)C(=O)[O-].[Na+] (centres unmarked) [1 % Sodium lactate, Sodium lactate]
BIOLOG GEN II (chemically sensitive experiments) Results [1]: + | BIOLOG GEN II (chemically sensitive experiments) Results [2]: +

OC[C@H]1O[C@H](OC[C@H]2O[C@H](O[C@]3(CO)O[C@H](CO)[C@@H](O)[C@@H]3O)[C@H](O)[C@@H](O)[C@@H]2O)[C@H](O)[C@@H](O)[C@H]1O [D-raffinose]
BIOLOG GEN III (growth experiments) Results [3]: - | BIOLOG GEN III (growth experiments) Results [4]: -

[Cl-].[Li+] [Lithium chloride]
BIOLOG GEN II (chemically sensitive experiments) Results [1]: + | BIOLOG GEN II (chemically sensitive experiments) Results [2]: +

C[C@H](O)C(=O)O [L-lactic acid]
BIOLOG GEN III (growth experiments) Results [3]: - | BIOLOG GEN III (growth experiments) Results [4]: -

OC[C@@H](O)C(O)[C@H](O)CO [D-arabitol]
BIOLOG GEN III (growth experiments) Results [3]: - | BIOLOG GEN III (growth experiments) Results [4]: -

O=[Te]([O-])[O-].[K+].[K+] [Potassium tellurite]
BIOLOG GEN II (chemically sensitive experiments) Results [1]: + | BIOLOG GEN II (chemically sensitive experiments) Results [2]: +

O=C1CN(/N=C/c2ccc([N+](=O)[O-])o2)C(=O)N1 [Furantoin]
Susceptibility degree [5]: R | Susceptibility degree [6]: R

OC[C@H]1O[C@H](OCC2O[C@@H](O)[C@H](O)[C@@H](O)[C@@H]2O)[C@H](O)[C@@H](O)[C@H]1O (stereo partly drawn) [D-melibiose]
BIOLOG GEN III (growth experiments) Results [3]: + | BIOLOG GEN III (growth experiments) Results [4]: +

OC[C@H]1O[C@H](O[C@H]2[C@H](O)[C@@H](O)[C@H](O)O[C@@H]2CO)[C@H](O)[C@@H](O)[C@@H]1O [D-maltose]
BIOLOG GEN III (growth experiments) Results [3]: - | BIOLOG GEN III (growth experiments) Results [4]: -

OC[C@H]1O[C@H](O[C@H]2O[C@H](CO)[C@@H](O)[C@H](O)[C@H]2O)[C@H](O)[C@@H](O)[C@@H]1O [D-trehalose]
BIOLOG GEN III (growth experiments) Results [3]: + | BIOLOG GEN III (growth experiments) Results [4]: +

O=C(O)C[C@H](O)C(=O)O [L-malic acid]
BIOLOG GEN III (growth experiments) Results [3]: + | BIOLOG GEN III (growth experiments) Results [4]: +

CO[C@@H]1O[C@H](CO)[C@@H](O)[C@H](O)[C@H]1O [β-methyl-D-glucoside]
BIOLOG GEN III (growth experiments) Results [3]: - | BIOLOG GEN III (growth experiments) Results [4]: -

[Cl-].[Na+] [1%NaCl, NaCl]
BIOLOG GEN II (chemically sensitive experiments) Results [1]: + | BIOLOG GEN II (chemically sensitive experiments) Results [2]: +

Cotrimoxazole
Susceptibility degree [5]: S | Susceptibility degree [6]: S

CC(O)CC(=O)O (racemic) [β-hydroxy-D,L-butyric acid]
BIOLOG GEN III (growth experiments) Results [3]: + | BIOLOG GEN III (growth experiments) Results [4]: +

O=C(O)CCC(=O)C(=O)O [α-ketoglutarate]
BIOLOG GEN III (growth experiments) Results [3]: + | BIOLOG GEN III (growth experiments) Results [4]: +

O=C[C@H](O)[C@@H](O)[C@H](O)[C@H](O)COP(=O)(O)O [D-glucose-6-phosphoric acid]
BIOLOG GEN III (growth experiments) Results [3]: - | BIOLOG GEN III (growth experiments) Results [4]: -

D-salicin
BIOLOG GEN III (growth experiments) Results [3]: - | BIOLOG GEN III (growth experiments) Results [4]: -

Penicillin
Susceptibility degree [5]: R | Susceptibility degree [6]: R

CO[C@H]1/C=C/O[C@@]2(C)Oc3c(C)c([O-])c4c(O)c(cc(O)c4c3C2=O)NC(=O)/C(C)=C\C=C\[C@H](C)[C@H](O)[C@@H](C)[C@@H](O)[C@@H](C)[C@H](OC(C)=O)[C@@H]1C.[Na+] [Rifamycin SV]
BIOLOG GEN II (chemically sensitive experiments) Results [1]: + | BIOLOG GEN II (chemically sensitive experiments) Results [2]: +

COc1cc(-c2ccc(-n3nc(-c4ccccc4)n[n+]3-c3ccccc3)c(OC)c2)ccc1-n1nc(-c2ccccc2)n[n+]1-c1ccccc1.[Cl-].[Cl-] [Tetrazolium blue]
BIOLOG GEN II (chemically sensitive experiments) Results [1]: - | BIOLOG GEN II (chemically sensitive experiments) Results [2]: -

Tween 40
BIOLOG GEN III (growth experiments) Results [3]: + | BIOLOG GEN III (growth experiments) Results [4]: +

Romifloxacin
Susceptibility degree [5]: S | Susceptibility degree [6]: S

COC(=O)[C@@H](C)O [D-methyl lactate]
BIOLOG GEN III (growth experiments) Results [3]: - | BIOLOG GEN III (growth experiments) Results [4]: -

OC[C@H]1O[C@H](OC[C@H]2O[C@H](OC[C@H]3O[C@H](O[C@]4(CO)O[C@H](CO)[C@@H](O)[C@@H]4O)[C@H](O)[C@@H](O)[C@@H]3O)[C@H](O)[C@@H](O)[C@H]2O)[C@H](O)[C@@H](O)[C@H]1O [Stachyose]
BIOLOG GEN III (growth experiments) Results [3]: - | BIOLOG GEN III (growth experiments) Results [4]: -

CCC(O)C(=O)O (centres unmarked) [A-hydroxybutyr atic acid]
BIOLOG GEN III (growth experiments) Results [3]: - | BIOLOG GEN III (growth experiments) Results [4]: -

O=C(O)C[C@@H](O)C(=O)O [D-malic acid]
BIOLOG GEN III (growth experiments) Results [3]: - | BIOLOG GEN III (growth experiments) Results [4]: -

O=C(CO)[C@@H](O)[C@H](O)[C@H](O)COP(=O)(O)O [D-fructose-6-phosphoric acid]
BIOLOG GEN III (growth experiments) Results [3]: + | BIOLOG GEN III (growth experiments) Results [4]: +
